Where a name gives a salt, the structure may show the parent alone.
Legend:
[1] = target: T1, OFQ receptor (rat, LC132) (Rattus norvegicus, UniProt P35370); assay: OFQ-R binding assay: [3H]-OFQ competition on membranes of 293s-OFQ-R cells; settings: Ki from IC50 by Cheng and Prusoff, at least 6 concentrations in triplicate, determined twice, read-out: OFQ pKi (converted)
T1 construct: expressed in transfected cells; host or cells: HEK-293 cells adapted to suspension growth (293s), vector pCEP4; total membrane fraction of 293s-OFQ-R cells
T1 sequence (P35370 whole entry): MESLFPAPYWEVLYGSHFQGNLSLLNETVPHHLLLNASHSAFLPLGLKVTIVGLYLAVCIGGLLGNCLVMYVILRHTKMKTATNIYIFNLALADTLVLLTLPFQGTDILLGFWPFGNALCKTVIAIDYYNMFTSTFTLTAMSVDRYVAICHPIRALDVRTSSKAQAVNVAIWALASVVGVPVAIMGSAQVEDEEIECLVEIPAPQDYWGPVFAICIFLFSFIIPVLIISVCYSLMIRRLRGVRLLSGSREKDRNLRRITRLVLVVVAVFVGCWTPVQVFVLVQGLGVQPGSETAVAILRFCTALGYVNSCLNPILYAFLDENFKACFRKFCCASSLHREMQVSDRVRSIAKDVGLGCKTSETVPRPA
Method: Methods of OFQ-R Binding Assay
HEK-293 cells adapted to suspension growth (293s) were cultured in HL medium plus 2% FBS. The cells were transfected with the rat OFQ receptor cDNA (LC132), FEBS Lett. 347, 284-288, 1994, cloned in the expression vector pCEP4 (Invitrogen, San Diego, Calif., USA) using lipofectin (Life Technologies, Bethesda, Md., USA). Transfected cells were selected in the presence of hygromycin (1000 U/ml) (Calbiochem, San Diego, Calif., USA). A pool of resistant cells was tested for OFQ-R expression by binding of [^3 H]-OFQ (Amersham PLC, Buckinghamshire, England). These cells (293s-OFQ-R) were expanded for large scale culture and membrane preparation.
293s-OFQ-R cells were harvested by centrifugation, washed 3 times with phosphate buffered saline (PBS) before resuspension in buffer A (50 mM Tris-HCl, pH 7.8, 5 mM MgCl2, 1 mM EGTA) and disruption with a tissue homogenizer (30 seconds, setting 4, Pt 20, Kinematica, Kriens-Lucern, Switzerland). A total membrane fraction was obtained by centrifugation at 49,000×g at 4° C. This procedure was repeated twice and the pellet was resuspended in buffer A. Aliquots were stored at -70° C. and protein concentrations were determined using the BCA™ Protein Assay Reagent (Pierce, Rockford, Ill.) following the manufacturer's recommendations.
[^3 H]-OFQ competition studies were carried out with 77 μg membrane protein in a final assay volume of 0.5 ml buffer A plus 0.1% BSA and 0.01% bacitracin (Boehringer-Mannheim, Mannheim, Germany) for one hour at room temperature. 50 nM unlabeled OFQ was used to define the non-specific binding. […] The retained radioactivity was counted on a Packard Top-Count microplate scintillation counter after addition of 40 μl of Microscint 40 (Canberra Packard). The effects of compounds were determined using at least 6 concentrations in triplicate, and determined twice. IC50 values were determined by curve fitting and these calues were converted to Ki values by the method of Cheng and Prusoff, Biochem. Pharmacol., 22, 3099, 1973.

[2] = system: adenylate cyclase in CHO(LC 132^+) cells; settings: CHO(LC 132+) cells in culture; cited from earlier work
OFQ-R = settings: both in vitro and in vivo; cited from earlier work
mice [3] = settings: intra-cerebroventricular; cited from earlier work
mice [4] = settings: intra-cerebroventricular; cited from earlier work; remark: listed apart in the source

O=C1OC2(CCN(CCNC3c4ccccc4CCc4ccccc43)CC2)c2ccccc21 [A/1, 1'-[2-(10,11-Dihydro-5H-dibenzo[a,d]cyclohepten-5-ylamino)-ethyl]-spiro[isobenzofuran-1,4'-piperidin]-3-one methansulfonate (1:2)]
Ki [1]: 50.1 nM

c1ccc2c(c1)CCCCC2NCCN1CCC2(CC1)OCc1ccccc12 (stereo not shown) [B/5, [2-(3H-Spiro[isobenzofuran-1,4'-piperidin]-1'yl)-ethyl]-(5,6,7,8-tetrahydro-4H-benzocyclohepten-4-yl)-amine hydrochloride (1:2)]
Ki [1]: 100 nM

c1ccc(C(OCCN2CCC3(CC2)OCc2ccccc23)c2ccccc2)cc1 [Example C, 1'-(2Benzhydryloxy-ethyl)-3H-spiro[isobenzofuran-1,4'-piperidine]hydrochloride (1:1)]
Ki [1]: 12.6 nM

F-G-G-F-T-G-A-R-K-S-A-R-K-L-A-N-Q (FGGFTGARKSARKLANQ) [OFQ, seventeen amino-acid-long peptide isolated from rat brain, natural ligand for a G-protein coupled receptor (OFQ-R)]
inhibition of adenylate cyclase [2]: inhibits adenylate cyclase | agonistic activity at the OFQ-R (OFQ-R): exhibits agonistic activity | hyperalgesia (mice [3]): induces hyperalgesia | locomotive activity (mice [4]): slows down locomotive activity

Source: US6166209A, “Piperidine derivatives” (Hoffmann-La Roche Inc., priority 1997, dated 2000)
